# Patent publication US12642756B2, “Leave-on composition” (Firmenich SA, priority 2020, dated 2026)
# How the values were obtained:
# [1] = tested on: Hydrolase (Lipase solution 0.100 LU/ml); experiment: Fragrance evolution on Tzero lids (dynamic headspace) in a personal care base; assay type: biochemical; details: day cream base O/W emulsion with 1 wt% compound, absence of hydrolase (water control), 32C, 4 hours
# Description: To confirm fragrance release in presence of personal care base, personal care base was formulated with invention's compound and analyzed by an in-vitro assay measuring the functional perfume ingredient in the gaseous phase.
# Testing was done in the presence of physiologically relevant concentration of Hydrolase (0.1 LU/ml) as follows. […] 901671.901] crucibles. 2.5 ul of personal care base with (2E,6Z)-nona-2,6-dien-1-yl hexadecanoate was added to the same crucibles and placed on preheated precision hotplate to 32C. Additional aliquots of 2.5 ul water were added to the crucibles at 1 h and 4 h to simulate humidity on skin and facilitate hydrolysis. The crucibles were transferred to 20 ml headspace vials after 4 hours at 32C.
# Analysis performed by Dynamic Headspace using Tenax TA trap outlined as follows. GC-MS-DHS analyses were performed on an Agilent Gas Chromatograph system 7890B coupled to an Agilent Mass Selective Detector 5977B and equipped with a Gerstel MPS autosampler. Additionally equipment of automated Gerstel Dynamic Headspace System, ATEX air sampling tube gripper for 20 mL headspace vials with a metal screw cap (preassembled with 1.3 mm PTFE septa) and Gerstel CIS 4C cryostatic cooling device CCD2 (Inlet 2) mounted with Gerstel TDU2 thermal desorption unit. […]
# [2] = tested on: lipase enzyme (Enzyme Innovation Addclean LP L); experiment: Reaction rate measurement in solution in the presence of a hydrolase (GC/MS); assay type: biochemical
# Description: The release kinetics of 3,7-dimethyl-2,6-octadien-1-yl hexadecanoate (comparative compound) and (2E,6Z)-nona-2,6-dien-1-yl hexadecanoate (invention's compound) in the presence of a hydrolase were compared.
# In order to compare the reaction rate of the esters, the amount of 3,7-dimethyl-2,6-octadien-1-yl hexadecanoate and (2E,6Z)-nona-2,6-dien-1-yl hexadecanoate and the amount of ethyl hexadecanoate over time were measured by GC/MS. The ethyl hexadecanoate was formed by the reaction between the hexadecanoic acid released and the ethanol.
# Enzyme Solution Preparation: The lipase enzyme source used was Enzyme Innovation Addclean LP L at an activity of 20000 Lipase Units/g. A stock solution of 100 LU/ml was prepared and diluted in serial dilution to working concentrations as follows:
# The solutions comprising 3,7-dimethyl-2,6-octadien-1-yl hexadecanoate or (2E,6Z)-nona-2,6-dien-1-yl hexadecanoate (also called palmitate ester solutions) were prepared by dissolving in ethanol to 5% by weight. These were subsequently diluted to working conditions of the experiment.
# In a 2 ml Agilent GC vial (Agilent 5183-2068), 50 ul of 100 LU/ml solution was added with a micropipette. 100 ul deionized water was added to ensure continued hydrolysis. Samples to were prepared for each time condition, replicate, and palmitate ester solutions of interest because the reaction will be stopped and only measured once at 0 hours, 0.5 hours and 1 hour. […]
# The palmitate esters were prepared by dissolving in ethanol to 5% by weight (stock). Palmitate ester solution was further diluted to 0.2% and 50 ul added to all sample vials above and recorded as time zero. […] Samples were analyzed by GC/MS direct injection methodology as follows.
# GC-MS analyses were performed on an Agilent Gas Chromatograph system 7890B coupled to an Agilent Mass Selective Detector 5977B and equipped with a Gerstel MPS autosampler or equivalent. […] External calibration curves of (2E,6Z)-nona-2,6-dien-1-yl hexadecanoate and 3,7-dimethyl-2,6-octadien-1-yl hexadecanoate were prepared at 10-500 ppm was prepared and sample signal quantified in ppm.
# [3] = tested on: Hydrolase (Lipase solution 0.100 LU/ml); experiment: Fragrance evolution on Tzero lids (dynamic headspace), palmitate esters; assay type: biochemical
# Description: To further investigate the release kinetics of palmitate esters in the presence of hydrolases, an in-vitro assay measuring the functional perfume ingredient in the gaseous phase was devised.
# Three palmitate esters releasing respectively (2E,6Z)-nona-2,6-dien-1-ol (corresponding to invention's compound) and 3,7-dimethyl-2,6-octadien-1-ol (corresponding to comparative compound) were tested in the presence of physiologically relevant concentration of Hydrolase (0.1 LU/ml) as follows. 2.5 ul Lipase solution (0.100 LU/ml) was added to Tzero Lids TA [Part no. 901671.901] crucibles. 2.5 ul of 0%, […], 0.1%, […] and 1% solution in ethanol of palmitate esters were added to the same crucibles and placed on preheated precision hotplate to 32C. Additional aliquots of 2.5 ul water were added to the crucibles at 1 h and 4 h to simulate humidity on skin and facilitate hydrolysis. The crucibles were transferred to 20 ml headspace vials after […] at 32C.
# Analysis performed by Dynamic Headspace using Tenax TA trap outlined as follows. GC-MS-DHS analyses were performed on an Agilent Gas Chromatograph system 7890B coupled to an Agilent Mass Selective Detector 5977B and equipped with a Gerstel MPS autosampler. […]
# [4] = Paneling of released fragrance alcohols on glass slides (sensory panel)
# Description: Evaporation kinetics using 76 mm×51 mm glass slides was carried out. Prazitherm precision hotplate was pre-heated to 32 degrees Celsius for 30 minutes. Three glass slides were placed on the precision hotplate. Each glass slide is labeled with a unique code so that its identity is unknown to the panelists. Using a Gilson Microman M25 positive displacement pipette, […] of 0.1 LU lipase solution was dosed directly to the center of one of the glass slides. Then 20 μl of 1% (2E,6Z)-nona-2,6-dien-1-yl hexadecanoate was dosed very slowly to the lipase droplet. Once all the sample solution was applied onto the glass slide, the applied glass slide was evaporated on the precision hotplate for 4 hours at 32 degrees Celsius. Sample preparation for 1% (Z)-3-hexen-1-yl hexadecanoate solution and 1% 3,7-dimethyl-2,6-octadien-1-yl hexadecanoate solution were done the same way. Sample preparations for all three solutions were repeated for duplicates to replace each glass slide twice during the sensory panel period—the limit for a glass slide sample set (with 3 different glass slide samples) was 10 evaluations. At the 4-hour time interval, a spray bottle filled with deionized water was primed and then water was sprayed directly onto each glass slide once. One spray was enough to cover the glass slide. All glass slides were allowed to sit for 10 minutes before the sensory panel so the water was absorbed by the evaporated mixtures to represent humidity on skin. For evaluation, the panelist picks up the treated glass slides, smells the center and rates the intensity of each slide on an evaluation sheet.
# In one test, the panelists rated odor intensity on a scale of 1 to 7 for each glass slide evaluated under release by the hydrolase at time 4 hours. The second approach was the so-called forced choice where panelists were forced to select the most intense out of the three […] after release with the Hydrolase at 4 hours at 0.1 LU/ml.
# [5] = glass slide, 0.1 LU/ml lipase, 4 hours
"release of (2E,6Z)-nona-2,6-dien-1-ol in headspace from personal care base [1]",SMILES,"total rate of lipase-catalyzed reaction ([2]; compared with 3,7-dimethyl-2,6-octadien-1-yl hexadecanoate)","concentration of the ester in solution in function of time ([2]; lipase 100 LU/ml solution, 32C, 0, 0.5 and 1 hour, GC/MS, compared with 3,7-dimethyl-2,6-octadien-1-yl hexadecanoate (FIG. 1))","release of the alcohol, confirmed by increase of ethyl hexadecanoate ([2]; lipase, ethanol present, 32C, up to 1 hour, compared with 3,7-dimethyl-2,6-octadien-1-ol (FIG. 2))","rate of release of fragrance material into headspace ([3]; Hydrolase 0.1 LU/ml, 32C, 4 hours, on Tzero lids (FIG. 3))","odor intensity rated by panelists on a scale of 1 to 7 ([4]; 1% solution on glass slide, 0.1 LU/ml lipase, 4 hours at 32 degrees Celsius, versus the two other hexadecanoates (FIG. 6))","perception / impression by the panelists [4, 5]","forced choice: panelists who selected the sample as the most intense ([4]; glass slide, Hydrolase 0.1 LU/ml, 4 hours, three esters compared (FIG. 7))","release rate compared with 3,7-dimethyl-2,6-octadien-1-yl hexadecanoate ([3]; stated in Example 6, test not named)"
no release is observed,"CC/C=C\CC/C=C/COC(=O)CCCCCCCCCCCCCCC [(2E,6Z)-nona-2,6-dien-1-yl hexadecanoate]",higher total rate of lipase-catalyzed reaction,"decreased more rapid than the concentration of 3,7-dimethyl-2,6-octadien-1-yl hexadecanoate","faster release of (2E,6Z)-nona-2,6-dien-1-ol compared to 3,7-dimethyl-2,6-octadien-1-ol","higher rate than 3,7-dimethyl-2,6-octadien-1-yl hexadecanoate",significantly more intense,the most intense impression,20/21,–
–,"CC/C=C\CCOC(=O)CCCCCCCCCCCCCCC [(Z)-3-hexen-1-yl hexadecanoate, reference compound]",–,–,–,–,–,not well perceived by the panelists,–,"release faster than 3,7-dimethyl-2,6-octadien-1-yl hexadecanoate"
